Data on three compounds can be found in patent publication US20190388421A1, “NOVEL COMPOUNDS AND PHARMACEUTICAL COMPOSITIONS THEREOF FOR THE TREATMENT OF FIBROSIS” (Galapagos NV, priority 2016, published 2019).

The target in experiment [1] is T1, human GPCR sphingosine 1-phosphate receptor 2 (S1PR2) (Homo sapiens, UniProt O95136).
T1 construct: host or cells: CHO
In words: S1P2 antagonist assay (Ca2+ flux, S1P at EC80). The class given is cell-based. To be noted: CHO-S1PR2 cells, highest concentration 20 μM. In a few lines:
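CHO cells stably overexpressing human S1PR2, serum-starved 1 h and loaded with Fluo8 dye, were read for 3 min after compound addition, then stimulated with S1P at EC80 after 15 min at 37 °C. Top concentration 20 μM in a 10-point 1/3 series; Ca2+ fluorescence ratio normalized to vehicle and S1P EC80, giving EC50.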
For orientation: A change in cytosolic calcium serves as a functional read-out for many receptors and channels.

The subject of experiment [2] is HFL-1 cells. Nature of the experiment: IL8 assay (S1P induced IL-8 production). The experiment is classed as cell-based. To be noted: Homo sapiens, HFL1; S1P (1 μM) induced IL-8, HFL-1 cells, without HSA. In a few lines: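 Serum-starved human fetal lung fibroblasts were preincubated with compound for 1 h at 37° C (10-point, 1/3 dilution, top 30 μM, 0.3% DMSO). S1P at 1 μM final was then added for 16–24 h, and IL-8 in the supernatant was measured by ELISA.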

Experiment [3] has as its target T2, human GPCR sphingosine 1-phosphate receptor 1 (S1PR1) (Homo sapiens, UniProt P21453).
T2 construct: host or cells: CHO
Nature of the experiment: S1PR1 selectivity assay (Ca2+ flux, antagonist). The class given is cell-based. To be noted: S1P1 antagonist EC50, CHO cells overexpressing human S1PR1 and Gq protein. The gist of the method: (§1)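 CHO cells stably overexpressing human S1PR1 or S1PR5 with Gq were preincubated with compound 15 min at 37 °C, then stimulated with S1P at EC80 (S1PR1) or an S1PR5-specific agonist (S1PR5). Ca2+ fluorescence was read for 3 min; 10-point 1/3 dilutions from 20 μM final, normalized to vehicle and EC80 trigger, gave EC50.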

Experiment [4] has as its target T3, S1PR2 (Homo sapiens, UniProt O95136).
T3 construct: expressed in transfected cells
Nature of the experiment: GTP-γS binding assay ([35S]GTPγS, S1P at EC80, S1PR2 membranes). The class given is biochemical. To be noted: membranes from stable cell line over expressing S1PR2, read-out: S1PR2 EC. The gist of the method: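 Compounds tested against S1P at its EC80 on membranes (2.5 μg/well) from a stable S1PR2-overexpressing line, pre-incubated with 1 μM GDP 15 min at 4 °C. Buffer: 20 mM Tris pH 7.5, 10 mM MgCl2, 100 mM NaCl, 0.1% fatty-acid-free BSA, 50 ug/ml saponin. Incubated 4 h at room temperature; [35S]GTPγS binding read by WGA SPA beads.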
(In general: GTPγS resists hydrolysis and so accumulates on activated G proteins.)

The subject of experiment [5] is HFL-1 cells. In words: IL8 assay in the presence of Human Serum Albumin. The experiment is classed as cell-based. To be noted: HFL1, S1P (5 μM) induced IL-8, HFL-1 cells, with 2% HSA, read-out: HSA IL8 EC50. The gist of the method:
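Cells serum-starved with 1.95% HSA, pre-treated 1 h with compound (10-point 1/3 dilution from 30 μM, 0.3% DMSO), then stimulated with 5 μM S1P for 16 to 24 h at 37° C. Supernatant IL-8 measured by ELISA.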

Experiment [6] deals with T4, human GPCR sphingosine 1-phosphate receptor 5 (S1PR5) (Homo sapiens, UniProt Q9H228).
T4 construct: host or cells: CHO
T4 sequence (Q9H228 whole entry): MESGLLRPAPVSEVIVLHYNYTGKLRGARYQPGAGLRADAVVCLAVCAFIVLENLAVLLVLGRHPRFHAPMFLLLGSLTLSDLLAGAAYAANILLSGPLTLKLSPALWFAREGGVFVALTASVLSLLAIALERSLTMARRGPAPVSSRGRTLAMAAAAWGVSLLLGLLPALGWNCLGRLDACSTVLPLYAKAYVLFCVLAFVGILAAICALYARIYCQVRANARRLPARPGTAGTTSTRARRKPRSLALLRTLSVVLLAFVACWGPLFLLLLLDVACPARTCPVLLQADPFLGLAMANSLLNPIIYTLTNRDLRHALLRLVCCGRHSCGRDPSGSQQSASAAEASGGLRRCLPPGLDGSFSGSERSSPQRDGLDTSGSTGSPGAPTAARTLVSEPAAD
In words: S1PR5 selectivity assay (Ca2+ flux, antagonist, S1PR5 specific agonist trigger). The class given is cell-based. The note with it: S1P5 antagonist EC50, CHO cells overexpressing human S1PR5 and Gq protein. The gist of the method: as §1

pEC50, pIC50: −log10 of the molar value.

T2 sequence (P21453 whole entry): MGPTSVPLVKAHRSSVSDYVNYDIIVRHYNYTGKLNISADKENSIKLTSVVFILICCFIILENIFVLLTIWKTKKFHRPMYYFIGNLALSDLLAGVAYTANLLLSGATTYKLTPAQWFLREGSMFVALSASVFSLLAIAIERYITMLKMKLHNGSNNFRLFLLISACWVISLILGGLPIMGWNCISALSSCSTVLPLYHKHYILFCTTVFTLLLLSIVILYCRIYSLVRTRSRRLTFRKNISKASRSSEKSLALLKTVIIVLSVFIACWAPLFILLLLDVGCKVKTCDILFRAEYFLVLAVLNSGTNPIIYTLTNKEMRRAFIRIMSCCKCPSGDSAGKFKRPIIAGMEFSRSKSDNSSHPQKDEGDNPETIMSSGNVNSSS
T1 sequence (O95136 whole entry): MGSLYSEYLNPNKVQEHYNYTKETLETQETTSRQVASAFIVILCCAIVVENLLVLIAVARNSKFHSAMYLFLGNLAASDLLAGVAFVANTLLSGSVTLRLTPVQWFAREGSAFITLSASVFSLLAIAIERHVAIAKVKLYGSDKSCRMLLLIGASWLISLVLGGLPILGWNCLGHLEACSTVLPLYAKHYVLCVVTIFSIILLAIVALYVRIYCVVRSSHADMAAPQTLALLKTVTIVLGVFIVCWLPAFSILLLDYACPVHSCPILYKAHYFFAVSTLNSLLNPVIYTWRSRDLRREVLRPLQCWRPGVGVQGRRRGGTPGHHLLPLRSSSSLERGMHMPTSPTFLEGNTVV
T3 sequence (O95136 whole entry): as above

With `Cc1cc(CNC(=O)Nc2cc(Cl)nc(OCC(F)F)c2)nnc1N1CCC(S(C)(=O)=O)C1` (stereo not drawn) [Compound 91, 1-[2-chloro-6-(2,2-difluoroethoxy)-4-pyridyl]-3-[[5-methyl-6-(3-methylsulfonyl-pyrrolidin-1-yl)pyridazin-3-yl]methyl]urea], the pEC50 in experiment [1] is 6.28; in experiment [2], 5.90; in experiment [3], not above 4.70; in experiment [4], 6.04; in experiment [6], not above 4.70. Besides, in experiment [5], the pIC50 was 5.55.

For `Cc1cc(CNC(=O)Nc2cc(Cl)nc(OCC(F)F)c2)nnc1N1CC(S(C)(=O)=O)C1` [Compound 92, 1-[2-chloro-6-(2,2-difluoroethoxy)-4-pyridyl]-3-[[5-methyl-6-(3-methylsulfonyl-azetidin-1-yl)pyridazin-3-yl]methyl]urea], the pEC50 is 6.73 in experiment [1]; 6.36 in experiment [2]; not above 4.70 in experiment [3]; 6.33 in experiment [4]; not above 4.70 in experiment [6]. Also, the pIC50 in experiment [5] is 5.00.

For the compound `CCOc1cc(NC(=O)NCc2cc(C)c(N3CCCc4nn(C)cc43)nn2)cc(C(F)(F)F)n1` [Compound 96, 1-[2-ethoxy-6-(trifluoromethyl)-4-pyridyl]-3-[[5-methyl-6-(2-methyl-6,7-dihydro-5H-pyrazolo[4,3-b]pyridin-4-yl)pyridazin-3-yl]methyl]urea], the pEC50 is 7.48 in experiment [1]; 7.36 in experiment [2]; 5.18 in experiment [3]; 6.52 in experiment [4]; 6.20 in experiment [6]. The pIC50 in experiment [5] is 5.64.
